Drawing on US8575135B2 (Gilead Sciences, Inc., priority 2011, dated 2013), this text covers EC50 for 7 compounds.

Holding throughout (assay): microbe, parasite or virus in culture
Conditions in all cases: Hepatitis C virus

Test [1] deals with 1a Pi-Rluc replicon with Q30R in genotype 1a NS5A. Format: cell-based, HCV. In outline: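 Renilla luciferase replicon assay: 1a Pi-RLuc replicon carrying NS5A Q30R, transfected transiently into cured-51 (Huh-7-derived) cells.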
Test [2] relates to stable HCV 1a RLuc replicon cells (genotype 1a H77 replicon). Format: cell-based.
In test [3] the test system is NS5A chimeric genotype 1b Con1 replicon with genotype 4a ED43 strain NS5A gene. Format: cell-based, HCV.
Test [4] concerns NS5A chimeric genotype 2a JFH-1 replicon with genotype 2a J6 strain NS5A gene (M31 present). The format is cell-based, HCV.
For test [5], the system named is NS5A chimeric genotype 2a JFH-1 replicon with genotype 2b MD2b-1 strain NS5A gene (M31 present). The format is cell-based, HCV. In outline: (§1)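 Con1 1b replicons carrying 3a S52 or 4a ED43 NS5A with Pi-RLuc reporter were transiently transfected into Huh-Lunet cells; 2b MD2b-1 NS5A (M31) in JFH-1 2a backbone with RLuc-Neo, transient or stable.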
The test system of test [6] is NS5A chimeric genotype 1b Con1 replicon with genotype 3a S52 strain NS5A gene. The format is cell-based, HCV. A digest of the protocol:
as §1

Test [7] deals with stable HCV 2a JFH-1 Rluc replicon cells (L31 present in NS5A). Format: cell-based.

The structures appear in SMILES notation. Where two headings read alike, the source gives them in different places.

`COC(=O)N[C@H](C(=O)N1CCC[C@H]1c1ncc(-c2ccc3c(c2)COc2cc4c(ccc5nc([C@@H]6CCCN6C(=O)[C@H](NC(=O)OC)c6ccccc6)[nH]c54)cc2-3)[nH]1)[C@@H](C)OC` [Compound 588]: the EC50 was below 1 nM in test [1] (read-out: 1a Q30R); 0.087 nM in test [1] (read-out: 1a Q30R (nM)); below 1 nM in test [2] (read-out: 1a); 0.012 nM in test [2] (read-out: 1a (nM)); below 1 nM in test [3] (read-out: 4a); 0.019 nM in test [3] (read-out: 4a (t) (nM)). For the same compound, the EC50 in test [4] (read-out: 2a J6) is below 1 nM; in test [4] (read-out: 2a J6 (s) (nM)), 0.14 nM; in test [4] (read-out: 2a Jb (t) (nM)), 0.038 nM; in test [5] (read-out: 2b), below 1 nM; in test [5] (read-out: 2b (s) (nM)), 0.017 nM; in test [5] (read-out: 2b (t) (nM)), 0.012 nM. The EC50 was below 1 nM in test [6] (read-out: 3a), 0.027 nM in test [6] (read-out: 3a (nM)), below 1 nM in test [7] (read-out: 2a JFH) and 0.004 nM in test [7] (read-out: 2a JFH (nM)).
`COC(=O)N[C@H](C(=O)N1[C@@H](C)CC[C@H]1c1ncc(-c2ccc3c(c2)COc2cc4c(ccc5nc([C@@H]6CCCN6C(=O)[C@@H](NC(=O)OC)[C@@H](C)OC)[nH]c54)cc2-3)[nH]1)C(C)C` [Compound 603]: the EC50 in test [1] (read-out: 1a Q30R) is below 1 nM; in test [1] (read-out: 1a Q30R (nM)) it was 0.146 nM; in test [2] (read-out: 1a) it was below 1 nM; in test [2] (read-out: 1a (nM)) it was 0.009 nM; in test [3] (read-out: 4a), below 1 nM; in test [3] (read-out: 4a (s) (nM)) it was 0.022 nM. For the same compound, the EC50 in test [4] (read-out: 2a J6) is below 1 nM; in test [4] (read-out: 2a Jb (t) (nM)), 0.194 nM; in test [5] (read-out: 2b), below 1 nM; in test [5] (read-out: 2b (s) (nM)), 0.088 nM; in test [5] (read-out: 2b (t) (nM)) it was 0.067 nM; in test [6] (read-out: 3a), below 1 nM. Besides, the EC50 is 0.015 nM in test [6] (read-out: 3a (nM)), below 1 nM in test [7] (read-out: 2a JFH) and 0.007 nM in test [7] (read-out: 2a JFH (nM)).
As to `COC[C@H]1C[C@@H](c2nc3ccc4cc5c(cc4c3[nH]2)OCc2cc(-c3cnc([C@@H]4CCCN4C(=O)[C@H](NC(=O)OC)c4ccccc4)[nH]3)ccc2-5)N(C(=O)[C@@H](NC(=O)OC)C(C)C)C1` [Example MM, methyl {(1R)-2-[(2S)-2-(5-{2-[(2S,4S)-1-{(2S)-2-[(methoxycarbonyl)amino]-3-methylbutanoyl}-4-(methoxymethyl)pyrrolidin-2-yl]-1,11-dihydroisochromeno[4′,3′:6,7]naphtho[1,2-d]imidazol-9-yl}-1H-imidazol-2-yl)pyrrolidin-1-yl]-2-oxo-1-phenylethyl}carbamate], the EC50 is below 1 nM in test [1] (read-out: 1a Q30R); 0.044 nM in test [1] (read-out: 1a Q30R (nM)); below 1 nM in test [2] (read-out: 1a); 0.022 nM in test [2] (read-out: 1a (nM)); below 1 nM in test [3] (read-out: 4a); 0.016 nM in test [3] (read-out: 4a (s) (nM)). Further, the EC50 is 0.017 nM in test [3] (read-out: 4a (t) (nM)); below 1 nM in test [4] (read-out: 2a J6); 0.064 nM in test [4] (read-out: 2a J6 (s) (nM)); 0.018 nM in test [4] (read-out: 2a Jb (t) (nM)); below 1 nM in test [5] (read-out: 2b); 0.042 nM in test [5] (read-out: 2b (s) (nM)). The EC50 was 0.015 nM in test [5] (read-out: 2b (t) (nM)); below 1 nM in test [6] (read-out: 3a); 0.02 nM in test [6] (read-out: 3a (nM)); below 1 nM in test [7] (read-out: 2a JFH); 0.007 nM in test [7] (read-out: 2a JFH (nM)).
As for `COC[C@@H]1C[C@@H](c2nc3ccc4cc5c(cc4c3[nH]2)OCc2cc(-c3cnc([C@@H]4CCCN4C(=O)[C@@H](NC(=O)OC)C(C)C)[nH]3)ccc2-5)N(C(=O)[C@H](NC(=O)OC)c2ccccc2)C1` [Example MQ, methyl{(1R)-2-[(2S,4R)-2-(9-{2-[(2S)-1-{(2S)-2-[(methoxycarbonyl)amino]-3-methylbutanoyl}pyrrolidin-2-yl)-1H-imidazol-5-yl]-1,11-dihydroisochromeno[4′,3′:6,7]naphtho[1,2-d]imidazol-2-yl}-4-(methoxymethyl)pyrrolidin-1-yl]-2-oxo-phenylethyl}carbamate], the EC50 in test [1] (read-out: 1a Q30R) was below 1 nM; in test [1] (read-out: 1a Q30R (nM)), 0.023 nM; in test [2] (read-out: 1a) it was below 1 nM; in test [2] (read-out: 1a (nM)), 0.008 nM; in test [3] (read-out: 4a), below 1 nM; in test [3] (read-out: 4a (t) (nM)) it was 0.011 nM. Besides, the EC50 is below 1 nM in test [4] (read-out: 2a J6); 0.095 nM in test [4] (read-out: 2a J6 (s) (nM)); 0.017 nM in test [4] (read-out: 2a Jb (t) (nM)); below 1 nM in test [5] (read-out: 2b); 0.023 nM in test [5] (read-out: 2b (s) (nM)); 0.009 nM in test [5] (read-out: 2b (t) (nM)). Besides, the EC50 in test [6] (read-out: 3a) is below 1 nM; in test [6] (read-out: 3a (nM)), 0.016 nM; in test [7] (read-out: 2a JFH) it was below 1 nM; in test [7] (read-out: 2a JFH (nM)) it was 0.004 nM.
Consider `COC[C@H]1C[C@@H](c2nc3c([nH]2)-c2cc4c(cc2CC3)-c2ccc(-c3cnc([C@@H]5CCCN5C(=O)[C@@H](NC(=O)OC)C(C)C)[nH]3)cc2CO4)N(C(=O)[C@H](NC(=O)OC)c2ccccc2)C1` [Example MR, methyl{(1R)-2-[(2S,4S)-2-(9-{2-[(2S)-1-{(2S)-2-[(methoxycarbonyl)amino]-3-methylbutanoyl}pyrrolidin-2-yl)-1H-imidazol-5-yl]-1,11-dihydroisochromeno[4′,3′:6,7]-4,5-dihydro-naphtho[1,2-d]imidazol-2-yl}-(methoxymethyl)pyrrolidin-1-yl]-2-oxo-1-phenylethyl}carbamate], for which the EC50 in test [1] (read-out: 1a Q30R) was below 1 nM; in test [1] (read-out: 1a Q30R (nM)), 0.128 nM; in test [2] (read-out: 1a) it was below 1 nM; in test [2] (read-out: 1a (nM)), 0.028 nM; in test [3] (read-out: 4a) it was below 1 nM; in test [3] (read-out: 4a (t) (nM)), 0.045 nM. Moreover, the EC50 is below 1 nM in test [4] (read-out: 2a J6); 0.176 nM in test [4] (read-out: 2a J6 (s) (nM)); 0.079 nM in test [4] (read-out: 2a Jb (t) (nM)); below 1 nM in test [5] (read-out: 2b); 0.053 nM in test [5] (read-out: 2b (s) (nM)); 0.039 nM in test [5] (read-out: 2b (t) (nM)). For the same compound, the EC50 in test [6] (read-out: 3a) is below 1 nM; in test [6] (read-out: 3a (nM)), 0.078 nM; in test [7] (read-out: 2a JFH), below 1 nM; in test [7] (read-out: 2a JFH (nM)), 0.017 nM.
As to `COC[C@H]1C[C@@H](c2ncc(-c3ccc4c(c3)COc3cc5c(ccc6nc([C@@H]7CCCN7C(=O)[C@@H](NC(=O)OC)C(C)C)[nH]c65)cc3-4)[nH]2)N(C(=O)[C@H](NC(=O)OC)c2ccccc2)C1` [Example MU, methyl{(1R)-2-[(2S,4S)-2-(5-{2-[(2S)-1-{(2S)-2-[(methoxycarbonyl)amino]-3-methylbutanoyl}-pyrrolidin-2-yl]-1,11-dihydroisochromeno[4′,3′:6,7]naphtho[1,2-d]imidazol-9-yl}-1H-imidazol-2-yl)-4-(methoxymethyl)pyrrolidin-1-yl]-2-oxo-1-phenylethyl}carbamate], the EC50 was below 1 nM in test [1] (read-out: 1a Q30R); 0.023 nM in test [1] (read-out: 1a Q30R (nM)); below 1 nM in test [2] (read-out: 1a); 0.008 nM in test [2] (read-out: 1a (nM)); below 1 nM in test [3] (read-out: 4a); 0.011 nM in test [3] (read-out: 4a (t) (nM)). Further, the EC50 in test [4] (read-out: 2a J6) is below 1 nM; in test [4] (read-out: 2a J6 (s) (nM)), 0.046 nM; in test [4] (read-out: 2a Jb (t) (nM)), 0.013 nM; in test [5] (read-out: 2b), below 1 nM; in test [5] (read-out: 2b (s) (nM)) it was 0.025 nM; in test [5] (read-out: 2b (t) (nM)) it was 0.009 nM. Further, the EC50 in test [6] (read-out: 3a) is below 1 nM; in test [6] (read-out: 3a (nM)), 0.017 nM; in test [7] (read-out: 2a JFH), below 1 nM; in test [7] (read-out: 2a JFH (nM)), 0.004 nM.
With `COC(=O)N[C@H](C(=O)N1CCC[C@H]1c1ncc(-c2ccc3c(c2)COc2cc4c(ccc5nc([C@@H]6C[C@H](C)CN6C(=O)[C@H](NC(=O)OC)c6ccccc6)[nH]c54)cc2-3)[nH]1)C(C)C` [Example MY, Methyl {2-[2-{9-[2-(1-{2-[(methoxycarbonyl)amino]-3-methylbutanoyl}pyrrolidin-2-yl)-1H-imidazol-5-yl]-1,11-dihydroisochromeno[4′,3′:6,7]naphtho[1,2-d]imidazol-2-yl}-4-(methyl)pyrrolidin-1-yl]-2-oxo-1-phenylethyl}carbamate], the EC50 in test [1] (read-out: 1a Q30R) was below 1 nM; in test [1] (read-out: 1a Q30R (nM)), 0.024 nM; in test [2] (read-out: 1a) it was below 1 nM; in test [2] (read-out: 1a (nM)), 0.016 nM; in test [3] (read-out: 4a), below 1 nM; in test [3] (read-out: 4a (s) (nM)), 0.02 nM. The EC50 was 0.008 nM in test [3] (read-out: 4a (t) (nM)); below 1 nM in test [4] (read-out: 2a J6); 0.165 nM in test [4] (read-out: 2a J6 (s) (nM)); 0.047 nM in test [4] (read-out: 2a Jb (t) (nM)); below 1 nM in test [5] (read-out: 2b); 0.047 nM in test [5] (read-out: 2b (s) (nM)). The EC50 in test [5] (read-out: 2b (t) (nM)) is 0.016 nM; in test [6] (read-out: 3a) it was below 1 nM; in test [6] (read-out: 3a (nM)), 0.01 nM; in test [7] (read-out: 2a JFH) it was below 1 nM; in test [7] (read-out: 2a JFH (nM)), 0.005 nM.
